Legend:
Human HDAC1 = molecular target: T1, Human HDAC1 (Homo sapiens, UniProt Q13547); experiment: HDAC1 biochemical assay, AMC-labeled peptide substrate; details: read-out: HDAC Isoform IC50 (nM) 1
T1 construct: full length with C-terminal His-tag and C-terminal FLAG-tag; His (C); FLAG (C); host or cells: baculovirus expression system
Procedure, shortened: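 Two-step fluorogenic read: HDAC1 deacetylates 50 μM acetyl-lysine AMC peptide RHKK(Ac)AMC for 1 h at 30° C (pH 8.0, 1% DMSO, with compound), then developer digests the product for fluorescence at Ex/Em 360/460. Enzyme is full-length human, His/FLAG-tagged, insect-cell expressed, at 0.3 ng/ul.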

Human HDAC7 = molecular target: T2, Human HDAC7 (Homo sapiens, UniProt Q8WUI4); experiment: HDAC7 biochemical assay, class IIa-specific substrate; details: read-out: HDAC Isoform IC50 (nM) 7
T2 construct: (a.a. 518-end) with N-terminal GST tag; GST (N); host or cells: baculovirus expression system
T2 sequence (Q8WUI4 518-952 limits assumed): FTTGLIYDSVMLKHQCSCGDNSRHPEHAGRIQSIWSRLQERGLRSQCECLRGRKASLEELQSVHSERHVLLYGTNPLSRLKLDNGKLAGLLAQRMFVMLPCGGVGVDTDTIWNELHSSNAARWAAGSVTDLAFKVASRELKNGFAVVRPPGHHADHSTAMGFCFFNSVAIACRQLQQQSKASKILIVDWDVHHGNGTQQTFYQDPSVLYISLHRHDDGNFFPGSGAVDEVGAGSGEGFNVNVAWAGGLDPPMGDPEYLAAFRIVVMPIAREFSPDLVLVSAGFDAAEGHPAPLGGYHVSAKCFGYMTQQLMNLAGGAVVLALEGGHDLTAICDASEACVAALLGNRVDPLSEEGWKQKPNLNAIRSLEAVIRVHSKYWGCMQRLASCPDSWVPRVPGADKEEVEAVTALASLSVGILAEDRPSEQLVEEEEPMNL
Procedure, shortened: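 Two-step fluorogenic readout: class IIa-selective trifluoroacetyl-lysine AMC substrate (50 μM) deacetylated by N-terminal GST-HDAC7 fragment (0.001 ng/ul), then digested by developer, Ex/Em 360/460. Reaction: 30 min, room temperature, Tris-HCl pH 8.0, NaCl/KCl/MgCl2, 1 mg/mL BSA, 1% DMSO.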

[1] = system: acetylated α-tubulin in A549 lung adenocarcinoma cells; experiment: Acetylated α-tubulin in-cell western (ICW) assay; assay type: cell-based; details: Homo sapiens, 16 h exposure, relative to 40 μM scriptaid positive control, read-out: EC50 Ac-α-tubulin, A549 cells
Description: (§1) Acetylated α-Tubulin and Histone H3 in-Cell Western (ICW) Assays
(§2) A549 cells were maintained in DMEM (Life Technologies)+10% FBS+2 mM glutamine & penicillin (10 μg/mL) and streptomycin ([…]. 10,000 A549 cells per well were plated into 96 well tissue culture plates (Corning) and incubated at 37° C. overnight in a humidified atmosphere containing 5% CO2 prior to addition of compounds. Compounds (dissolved in 100% DMSO) were diluted into cell culture media at 2× final assay concentration. 2× compound or DMSO (negative control) were added to cells (final DMSO concentration 0.4%). Untreated control wells received media. For acetylated α-tubulin assays, 40 μM scriptaid was used as a positive control. For acetylated histone H3 assays, 40 μM Trichostatin A (TSA) was used as a positive control. Cells were exposed to compound at 37° C. in a humidified atmosphere containing 5% CO2 for 16 h.
(§3) Measurement of the impact of compounds on levels of acetylated α-tubulin and histone H3 was performed using specific antibodies and near-infrared immunofluorescent dyes. Briefly, media was removed from wells of assay plates. Cells were washed once with PBS and fixed in 3.7% formaldehyde PBS solution at room temperature for 20 min. Cells were then permeabilised by washing 5 times in 0.1% triton-X-100 PBS at room temperature with gentle agitation for 5 min per wash. Non-specific antibody staining was blocked by the addition of Odyssey blocking buffer (Li-Cor) for 1.5 h at room temperature with gentle agitation. Cells were then incubated with primary antibody (mouse monoclonal anti-acetylated α-tubulin (clone 6-11B-1), Sigma or rabbit polyclonal anti-acetylated histone H3, Millipore) diluted in Odyssey blocking buffer at 4° C. with gentle shaking overnight (no antibody control and secondary antibody only wells were incubated with Odyssey blocking buffer only). Cells were washed five times with 0.1% tween PBS and labelled with secondary antibody (IR dye 800CW-conjugated goat anti mouse IgG or -goat anti rabbit IgG, Li-Cor) and cell stains Sapphire700 (Li-Cor) and Draq5 (Biostatus) diluted in Odyssey blocking buffer at room temperature in the dark with gentle shaking for 1 h (no antibody control wells were incubated with Odyssey blocking buffer only and secondary antibody only with diluted secondary antibody but no cell stains). Cells were washed with 0.1% Tween PBS five times and scanned using a Li-Cor Odyssey SA plate reader in 700 and 800 nm channels. Acetylated α-tubulin or histone H3 signal was normalised to cell number using the cell stain signal. Percentage increase in acetylated α-tubulin or histone H3 after compound treatment over the mean of DMSO treated controls, relative to scriptaid and TSA positive controls, respectively was calculated. EC50 values were calculated using GraphPad Prism software and nonlinear regression with 0% bottom and 100% top constraints.

[2] = system: acetylated histone H3 in A549 lung adenocarcinoma cells; experiment: Acetylated histone H3 in-cell western (ICW) assay; assay type: cell-based; details: Homo sapiens, 16 h exposure, relative to 40 μM Trichostatin A positive control, read-out: EC50 Ac-histone H3, A549 cells
Description: as §1, §2, §3

T1 sequence (Q13547 whole entry, canonical isoform): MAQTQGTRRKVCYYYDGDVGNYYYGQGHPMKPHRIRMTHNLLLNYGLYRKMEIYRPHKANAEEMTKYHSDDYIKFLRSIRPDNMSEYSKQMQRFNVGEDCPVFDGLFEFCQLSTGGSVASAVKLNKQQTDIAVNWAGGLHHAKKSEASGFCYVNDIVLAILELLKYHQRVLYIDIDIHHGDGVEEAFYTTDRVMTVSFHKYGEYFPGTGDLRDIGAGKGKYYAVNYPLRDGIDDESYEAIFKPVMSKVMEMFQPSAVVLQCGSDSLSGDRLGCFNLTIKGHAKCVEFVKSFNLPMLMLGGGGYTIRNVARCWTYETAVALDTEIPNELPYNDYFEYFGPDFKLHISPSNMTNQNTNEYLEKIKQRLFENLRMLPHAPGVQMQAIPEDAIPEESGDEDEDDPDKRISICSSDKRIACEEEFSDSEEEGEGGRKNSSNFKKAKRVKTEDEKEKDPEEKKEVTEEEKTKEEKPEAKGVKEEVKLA

IC50 (Human HDAC1) [nM]	IC50 (Human HDAC7) [nM]	EC50 [1] [µM]	EC50 [2] [µM]	Structure (SMILES)
≤ 10000	≤ 500	≤ 1	≥ 10	O=C(c1ccc(N(Cc2ccc(-c3noc(C(F)(F)F)n3)s2)c2cnccn2)nn1)N1CCC12COC2 [Example FH, 6-{6-Oxa-1-azaspiro[3.3]heptane-1-carbonyl}-N-(pyrazin-2-yl)-N-({5-[5-(trifluoromethyl)-1,2,4-oxadiazol-3-yl]thiophen-2-yl}methyl)pyridazin-3-amine]
> 10000	≤ 10000	≥ 10	≥ 10	FC(F)(F)c1cnnc(N(Cc2ccc(-c3noc(C(F)(F)F)n3)s2)c2cccnn2)c1 [Example ER, N-(Pyridazin-3-yl)-5-(trifluoromethyl)-N-({5-[5-(trifluoromethyl)-1,2,4-oxadiazol-3-yl]thiophen-2-yl}methyl)pyridazin-3-amine]
> 10000	≤ 1000	≤ 1	≥ 10	O=C(c1cnnc(N(Cc2ccc(-c3noc(C(F)(F)F)n3)s2)c2cnccn2)c1)N1CCOCC1 [Example EB, 5-(Morpholine-4-carbonyl)-N-(pyrazin-2-yl)-N-({5-[5-(trifluoromethyl)-1,2,4-oxadiazol-3-yl]thiophen-2-yl}methyl)pyridazin-3-amine]
> 10000	≤ 1000	≤ 1	≥ 10	O=C(c1cnnc(N(Cc2ccc(-c3noc(C(F)(F)F)n3)s2)c2cnccn2)c1)N1CCC1 [Example FS, 5-(Azetidine-1-carbonyl)-N-(pyrazin-2-yl)-N-({5-[5-(trifluoromethyl)-1,2,4-oxadiazol-3-yl]thiophen-2-yl}methyl)pyridazin-3-amine]
≤ 10000	≤ 500	≤ 1	≥ 10	NC(=O)c1ccc(N(Cc2ccc(-c3noc(C(F)(F)F)n3)s2)c2cnccn2)nn1 [Example DQ, 6-[(Pyrazin-2-yl)({5-[5-(trifluoromethyl)-1,2,4-oxadiazol-3-yl]thiophen-2-yl}methyl)amino]pyridazine-3-carboxamide]
> 10000	≤ 500			O=C(c1cncc(N(Cc2ccc(-c3noc(C(F)(F)F)n3)s2)c2cnccn2)c1)N1CCOCC1 [Example GR, N-[5-(Morpholine-4-carbonyl)pyridin-3-yl]-N-({5-[5-(trifluoromethyl)-1,2,4-oxadiazol-3-yl]thiophen-2-yl}methyl)pyrazin-2-amine]
> 10000	≤ 10000			COc1nccnc1N(Cc1ccc(-c2noc(C(F)(F)F)n2)s1)c1cnccn1 [Example BF, 3-Methoxy-N-(pyrazin-2-yl)-N-({5-[5-(trifluoromethyl)-1,2,4-oxadiazol-3-yl]thiophen-2-yl}methyl)pyrazin-2-amine]
> 10000	≤ 1000			Cc1cnnc(N(Cc2ccc(-c3noc(C(F)(F)F)n3)s2)c2cnccn2)c1 [Example GN, 5-Methyl-N-(pyrazin-2-yl)-N-({5-[5-(trifluoromethyl)-1,2,4-oxadiazol-3-yl]thiophen-2-yl}methyl)pyridazin-3-amine]
> 10000	≤ 10000			O=C(c1cnnc(N(Cc2ccc(-c3noc(C(F)(F)F)n3)s2)c2cnccn2)c1)N1CC(F)(F)C1 [Example FT, 5-(3,3-Difluoroazetidine-1-carbonyl)-N-(pyrazin-2-yl)-N-({5-[5-(trifluoromethyl)-1,2,4-oxadiazol-3-yl]thiophen-2-yl}methyl)pyridazin-3-amine]
> 10000	≤ 1000			CN(C(=O)c1cnnc(N(Cc2ccc(-c3noc(C(F)(F)F)n3)s2)c2cnccn2)c1)S(C)(=O)=O [Example GE, N-Methanesulfonyl-N-methyl-6-[(pyrazin-2-yl)({5-[5-(trifluoromethyl)-1,2,4-oxadiazol-3-yl]thiophen-2-yl}methyl)amino]pyridazine-4-carboxamide]
> 10000	≤ 10000			O=C(c1cnnc(N(Cc2ccc(-c3noc(C(F)(F)F)n3)s2)c2cnccn2)c1)N1CC2CCC(C1)O2 [Example GA, 5-{8-Oxa-3-azabicyclo[3.2.1]octane-3-carbonyl}-N-(pyrazin-2-yl)-N-({5-[5-(trifluoromethyl)-1,2,4-oxadiazol-3-yl]thiophen-2-yl}methyl)pyridazin-3-amine]
> 10000	≤ 1000			FC(F)c1cnnc(N(Cc2ccc(-c3noc(C(F)(F)F)n3)s2)c2cnccn2)c1 [Example GV, 5-(Difluoromethyl)-N-(pyrazin-2-yl)-N-({5-[5-(trifluoromethyl)-1,2,4-oxadiazol-3-yl]thiophen-2-yl}methyl)pyridazin-3-amine]
> 10000	≤ 10000			C[C@H]1CCCN1C(=O)c1cnnc(N(Cc2ccc(-c3noc(C(F)(F)F)n3)s2)c2cnccn2)c1 [Example GY, 5-[(2S)-2-Methylpyrrolidine-1-carbonyl]-N-(pyrazin-2-yl)-N-({5-[5-(trifluoromethyl)-1,2,4-oxadiazol-3-yl]thiophen-2-yl}methyl)pyridazin-3-amine]
> 10000	≤ 500			CC(C)OC1CN(C(=O)c2cnnc(N(Cc3ccc(-c4noc(C(F)(F)F)n4)s3)c3cnccn3)c2)C1 [Example GC, 5-[3-(Propan-2-yloxy)azetidine-1-carbonyl]-N-(pyrazin-2-yl)-N-({5-[5-(trifluoromethyl)-1,2,4-oxadiazol-3-yl]thiophen-2-yl}methyl)pyridazin-3-amine]
> 10000	≤ 500			Nc1cnnc(N(Cc2ccc(-c3noc(C(F)(F)F)n3)s2)c2cnccn2)c1 [Example FL, N3-(Pyrazin-2-yl)-N3-({5-[5-(trifluoromethyl)-1,2,4-oxadiazol-3-yl]thiophen-2-yl}methyl)pyridazine-3,5-diamine]
> 10000	≤ 10000			FC(F)(F)c1nc(-c2ccc(CN(c3cnccn3)c3cc(N4CCOCC4)cnn3)s2)no1 [Example FP, 5-(Morpholin-4-yl)-N-(pyrazin-2-yl)-N-({5-[5-(trifluoromethyl)-1,2,4-oxadiazol-3-yl]thiophen-2-yl}methyl)pyridazin-3-amine]
≤ 10000	≤ 1000			CC(=O)Nc1cnnc(N(Cc2ccc(-c3noc(C(F)(F)F)n3)s2)c2cnccn2)c1 [Example FM, N-{6-[(Pyrazin-2-yl)({5-[5-(trifluoromethyl)-1,2,4-oxadiazol-3-yl]thiophen-2-yl}methyl)amino]pyridazin-4-yl}acetamide]
> 10000	≤ 10000			FC(F)(F)c1nc(-c2ccc(CN(c3cnccn3)c3ncccn3)s2)no1 [Example AS, N-(Pyrimidin-2-yl)-N-({5-[5-(trifluoromethyl)-1,2,4-oxadiazol-3-yl]thiophen-2-yl}methyl)pyrazin-2-amine]
